PMC12040169 (PLOS Biology, 2025)

Assay: in vitro
Conditions: human, hela cells, % viability

Cc1cnc2c(N3CCCC3)nc(Cl)cn12 [CBK092250]
viability at 28.5 h, 10 µM: 104%

Cc1n[nH]c(NC(=O)/C=C/C(=O)O)c1-c1ccc(F)cc1 [CBK287068]
viability at 28.5 h, 10 µM: 96.7%

CC(C)OC(=O)C(NC(=O)OC(C)(C)C)c1ccccc1 (stereo not drawn) [CBK170399]
viability at 28.5 h, 10 µM: 90.4%

CCN1CCC2(CCC1=O)CN(Cc1noc(CC(C)C)n1)CCN2C (stereo not drawn) [CBK306971]
viability at 28.5 h, 10 µM: 90.5%

O=C(Nc1ccsc1C(=O)O)c1ccccc1Cl [CBK152440]
viability at 28.5 h, 10 µM: 98.4%

O=C(c1ccc(F)cc1)C1CCN(CCC(c2ccccc2)c2ccccc2)CC1 [CBK149138]
viability at 28.5 h, 10 µM: 92.3%

CN(C)c1ccc(-n2ccn(S(=O)(=O)c3ccc(Oc4ccccc4)cc3)c2=O)cc1 [CBK106608]
viability at 28.5 h, 10 µM: 89.3%

CCc1n[nH]c(SCc2ccc(Br)cc2)n1 [CBK265221]
viability at 28.5 h, 10 µM: 90.9%

COc1cc(C=CC(=O)O)ccc1OCC(=O)NCC(C)C [CBK296721]
viability at 28.5 h, 10 µM: 107%

CCOC(=O)c1[nH]c2ccccc2c1NS(=O)(=O)Cc1ccccc1 [CBK047413]
viability at 28.5 h, 10 µM: 93.1%

CCCN(Cc1nccn1C)C(=O)Cn1nc(C)c2ccccc2c1=O [CBK307441]
viability at 28.5 h, 10 µM: 95.4%

Cn1c(=O)n(CC(N)=O)c(=O)c2c1nc1oc(C(C)(C)C)cn12 [CBK306081]
viability at 28.5 h, 10 µM: 96.5%

COc1ccc(C(NC(=O)c2ccc(Cn3cncn3)cc2)c2ccccc2)cc1 (stereo not drawn) [CBK285749]
viability at 28.5 h, 10 µM: 106%

COCCNc1nc(-c2cccc(N(C)C)c2)ccc1C(=O)NCCc1ccccn1 [CBK105938]
viability at 28.5 h, 10 µM: 90.7%

COc1ccc(-c2nn(CC(=O)O)cc2/C=C/c2cc(C(F)(F)F)nc(=O)[nH]2)cc1 [CBK287128]
viability at 28.5 h, 10 µM: 86.8%

O=C(Cn1nnc2ccccc2c1=O)NC(Cc1ccccc1)c1ccccc1 (stereo not drawn) [CBK296933]
viability at 28.5 h, 10 µM: 96.6%

COc1ccc(-c2nc3ccccc3s2)cc1NC(=O)c1ccc(OCC(C)C)cc1 [CBK268878]
viability at 28.5 h, 10 µM: 94.7%

Cn1nc(-c2ccc(N3CCCCC3)c(NC(=O)COc3ccccc3)c2)c2ccccc2c1=O [CBK265780]
viability at 28.5 h, 10 µM: 97.3%

Cc1ccc(C)c(NC(=O)CSc2nnc(CCc3ccccc3)n2C)c1 [CBK266365]
viability at 28.5 h, 10 µM: 93.7%

COc1cccc(CN2CCCC3(C2)c2[nH]c4ccccc4c2CCN3C(C)=O)c1 (stereo not drawn) [CBK039634]
viability at 28.5 h, 10 µM: 86.4%

CC(=O)N1CC[C@H]2NC(=O)CNC(=O)C3(CCCC[C@H]2C1)CCN(C(=O)CC1CCOCC1)CC3 [CBK292030]
viability at 28.5 h, 10 µM: 92.9%

COc1ccc(N2C(=O)CC(N3CCN(C4CC(=O)N(c5ccc(OC)cc5)C4=O)CC3)C2=O)cc1 (stereo not drawn) [CBK260907]
viability at 28.5 h, 10 µM: 88.2%

CCCc1[nH]n(-c2ccc([N+](=O)[O-])cc2)c(=O)c1/C=N/N1CCN(C)CC1 [CBK262781]
viability at 28.5 h, 10 µM: 92.8%

Cc1ccc(Cl)cc1N1CCN(CC(O)COCc2ccc3c(c2)OCO3)CC1 (stereo not drawn) [CBK278308C]
viability at 28.5 h, 10 µM: 106%

COc1cnc(-c2ccsc2)c(NC(=O)CC(C)C)n1 [CBK145292]
viability at 28.5 h, 10 µM: 94%

Cc1cccc(N=C(S)N(CCN(C)C)Cc2cc3cc(C)cc(C)c3nc2O)c1 [CBK135105]
viability at 28.5 h, 10 µM: 96.2%

COc1ccc(C2(C)NC(=O)N(CC(=O)Nc3ccc(NC(C)=O)cc3)C2=O)cc1 (stereo not drawn) [CBK295182]
viability at 28.5 h, 10 µM: 106%

COc1cc(/C=N/c2ccc(O)c(-c3nc4ccccc4s3)c2)ccc1OC(=O)c1ccc(Cl)cc1Cl [CBK261243]
viability at 28.5 h, 10 µM: 101%

CC(c1ccc(Cl)cc1Cl)N(C)C(=O)c1ccc(S(C)(=O)=O)cc1 (stereo not drawn) [CBK242418]
viability at 28.5 h, 10 µM: 113%

O=C(COc1ccccc1)N1CCN(Cc2ccccn2)CC1 [CBK073265G]
viability at 28.5 h, 10 µM: 86.1%

O=C(N[C@H]1CCN2C(=O)c3cc(-c4ccccc4)ccc3NC(=O)[C@H]12)C1CCCC1 [CBK289349]
viability at 28.5 h, 10 µM: 91.6%

CCCCOc1ccc(C(=O)N(C)c2cnn(C)c2)c(O)c1 [CBK306167]
viability at 28.5 h, 10 µM: 89.5%

COc1ccccc1-c1noc(CCCC(=O)Nc2cccnc2)n1 [CBK268848]
viability at 28.5 h, 10 µM: 101%

CCN(CC)C(=O)C1CCCN(C(=O)NC(c2ccccc2)c2ccccc2)C1 (stereo not drawn) [CBK156125]
viability at 28.5 h, 10 µM: 106%

COCCN1C(=O)CN(Cc2ccccc2)C1=O [CBK162369]
viability at 28.5 h, 10 µM: 95.1%

Cc1nc(S(=O)(=O)CCn2cccn2)n(CC2CCCO2)c1C (stereo not drawn) [CBK305141]
viability at 28.5 h, 10 µM: 96.6%

COC(=O)[C@H]1CCc2ccccc2N1C(=O)c1ccco1 [CBK284259]
viability at 28.5 h, 10 µM: 84.5%

O=C(NS(=O)(=O)c1ccccc1)c1ccccc1 [CBK288429]
viability at 28.5 h, 10 µM: 88.2%

CC(=O)NCCN1CC[C@H]2CN(C(=O)COc3ccccc3)CC[C@H]2CC1=O [CBK288783]
viability at 28.5 h, 10 µM: 84.6%

CN1CCN(S(=O)(=O)c2ccccc2Br)CC1 [CBK062435]
viability at 28.5 h, 10 µM: 93.2%

c1ccc(COc2ccccc2-c2cc(N3CCN(c4ccccn4)CC3)ncn2)cc1 [CBK037793]
viability at 28.5 h, 10 µM: 97.4%

Cc1cccc(N2C(=O)SC(N(CC(=O)O)c3cccc(C)c3)C2=O)c1 (stereo not drawn) [CBK287095]
viability at 28.5 h, 10 µM: 87.6%

COc1cccc(CNc2nccnc2-c2cccs2)c1OC [CBK036784]
viability at 28.5 h, 10 µM: 95.7%

CN1CCN(c2ccccc2NC(=O)c2cccc3c(Br)cccc23)CC1 [CBK267894]
viability at 28.5 h, 10 µM: 92.9%

Cc1c(CCC(=O)N2CCCC(C(=O)O)C2)c(=O)oc2c(C)c(O)ccc12 (stereo not drawn) [CBK286764]
viability at 28.5 h, 10 µM: 88.5%

Cc1nn(C)c(N2CCNCC2)c1NC(=O)c1cc(-c2ccccc2)oc1C [CBK050356T]
viability at 28.5 h, 10 µM: 92.8%

C=C(C)CN1CCN(C(=O)C2Cc3cc(Cl)ccc3O2)CC1 (stereo not drawn) [CBK282639]
viability at 28.5 h, 10 µM: 89%

CCC(=O)N1CCCc2cc(C(O)CN3CCCCC3)ccc21 (stereo not drawn) [CBK282130]
viability at 28.5 h, 10 µM: 81.6%

Cc1nn(C)cc1-c1cncn1C(C)(C)CN1CCC(C)CC1 [CBK281740]
viability at 28.5 h, 10 µM: 108%

N#Cc1ccc(OCCO)cc1 [CBK000723]
viability at 28.5 h, 10 µM: 107%

COc1cc2c(cc1-c1nccn1CC1CN(C(C)=O)CCO1)CCC2 (stereo not drawn) [CBK306850]
viability at 28.5 h, 10 µM: 88.7%

O[C@H]1[C@H](NCc2ccco2)[C@H]2CO[C@H](O2)[C@@H]1N1CCCCC1 [CBK288825]
viability at 28.5 h, 10 µM: 106%

O=C(c1cnccn1)N1C[C@@H]2OCC(=O)N(CC3CC3)[C@@H]2C1 [CBK289681]
viability at 28.5 h, 10 µM: 91.3%

Cc1ccc(Cc2cnc(NC(=O)C3CCCO3)s2)cc1Cl (stereo not drawn) [CBK305013]
viability at 28.5 h, 10 µM: 96%

COc1ccc(C(=O)C2=C(O)C(=O)N(CCN3CCNCC3)C2c2ccccc2F)cc1 (stereo not drawn) [CBK264666]
viability at 28.5 h, 10 µM: 99.4%

[O-][n+]1c2c([n+]([O-])c3c1CCCC3)CCCC2 [CBK261714]
viability at 28.5 h, 10 µM: 99.5%

CC(=O)Nc1cccc(NC(=O)N2CCCC(CO)C2)c1 (stereo not drawn) [CBK156049]
viability at 28.5 h, 10 µM: 108%

CCc1cc(CNC(=O)C2CN(Cc3ccc(Cl)cc3)C2)on1 [CBK281564]
viability at 28.5 h, 10 µM: 97.8%

COc1ccccc1CCNC(=O)c1ncoc1-c1cccs1 [CBK282394]
viability at 28.5 h, 10 µM: 76.4%

CC(=O)NC[C@H]1CN(c2ccc3c(c2)CCN(C(=O)Oc2ccccc2)CC3)C(=O)O1 [CBK018498]
viability at 28.5 h, 10 µM: 91.2%

COCCN1C(=O)/C(=C2/C(=O)N(CC(=O)Nc3ccccc3)c3ccccc32)SC1=S [CBK264489]
viability at 28.5 h, 10 µM: 91.3%

O=C(c1ccc(-c2nccnc2NCCc2c[nH]c3ccccc23)cc1)N1CCOCC1 [CBK036891]
viability at 28.5 h, 10 µM: 95.6%

Cc1c(C(=O)NCCCCn2ccnc2)oc2c(C)cccc12 [CBK283315]
viability at 28.5 h, 10 µM: 99.9%

CC(C)CCNC(=O)N(CCC#N)C1CCCCC1 [CBK156378]
viability at 28.5 h, 10 µM: 91.6%

O=C(Nc1ccc(OC(F)F)cc1)Nc1ncc(Br)c2cccnc12 [CBK107635]
viability at 28.5 h, 10 µM: 115%

CN1CCN(C(=O)c2ccc(-c3cnc4[nH]c(=O)n(CCN5CCOCC5)c4n3)cc2)CC1 [CBK064800]
viability at 28.5 h, 10 µM: 114%

CS(=O)(=O)Nc1ccc(-c2cccc(C(F)(F)F)c2)c2ccccc12 [CBK083746]
viability at 28.5 h, 10 µM: 95.4%

COc1ccc(C(C)C)cc1-c1cn2ccnc2c(Nc2cccc(OC(F)(F)C(F)F)c2)n1 [CBK038049]
viability at 28.5 h, 10 µM: 95.9%

CC(C)(O)c1cc(CC2(NCC3CCCCC3)COC2)no1 [CBK289656]
viability at 28.5 h, 10 µM: 89.7%

Cc1cc(C(=O)N2CCN(C)CC2)ccc1-c1cnc(N)c(-c2ccc(O)cc2)n1 [CBK126749]
viability at 28.5 h, 10 µM: 94.8%

COc1cc(S(=O)(=O)NC2CC(C)(C)NC(C)(C)C2)ccc1Br [CBK267908]
viability at 28.5 h, 10 µM: 87.4%

Cc1nc(-c2ccccc2)sc1CNC(=O)/C=C\C(=O)Nc1ccc(F)cc1 [CBK092357]
viability at 28.5 h, 10 µM: 96.2%

CC(=O)N1CCC[C@H]2NC(=O)CNC(=O)C3(C/C=C/C[C@H]21)CCN(C(=O)c1ccon1)CC3 [CBK292057]
viability at 28.5 h, 10 µM: 109%

COc1ccnc2c1c(=O)n(Cc1ccc(Cl)cc1)c(=O)n2C [CBK287645]
viability at 28.5 h, 10 µM: 66.9%

c1ccc2c(c1)NCC21CCNCC1 [CBK022583]
viability at 28.5 h, 10 µM: 101%

CS(=O)(=O)N1CC2(CCN(Cc3ccc(OC(F)(F)F)cc3)CC2)c2ccccc21 [CBK126668]
viability at 28.5 h, 10 µM: 99.4%

O=C(O)c1cccnc1SC1CC(=O)N(c2ccc(F)cc2)C1=O (stereo not drawn) [CBK265582]
viability at 28.5 h, 10 µM: 110%

CCn1cc(-c2cncn2CC(C)N2CCCCC2)cn1 (stereo not drawn) [CBK281556]
viability at 28.5 h, 10 µM: 103%

NS(=O)(=O)c1ccc(CNC(=O)c2cc(-c3ccncc3)nc3ccc(Cl)cc23)cc1 [CBK267770]
viability at 28.5 h, 10 µM: 101%

c1ccc(CNc2nc(-c3ccco3)cn3ccnc23)nc1 [CBK037482]
viability at 28.5 h, 10 µM: 96.6%

CN1C[C@H](C(N)=O)[C@@H](c2ccc(CN(C)C(=O)c3cccc(Oc4ccccc4)c3)cc2)C1 [CBK285572]
viability at 28.5 h, 10 µM: 114%

O=C(Nc1cc(-c2nc3ncccc3o2)ccc1Cl)c1ccc2c(c1)OCCO2 [CBK264105]
viability at 28.5 h, 10 µM: 95%

N#Cc1ccccc1N1CCN(c2cncc(-c3cccc4cccnc34)n2)CC1 [CBK037366]
viability at 28.5 h, 10 µM: 102%

CCn1c(=O)n(CC(=O)NCc2ccccc2F)c2cccnc21 [CBK283890]
viability at 28.5 h, 10 µM: 86.8%

Cc1cc(Cl)c(S(=O)(=O)Nc2ccc3c(c2)OCCO3)cc1OCC(=O)NC1CCCCC1 [CBK266786]
viability at 28.5 h, 10 µM: 95.5%

NNC(=O)CCn1c2ccc(Cl)cc2c2cc(Cl)ccc21 [CBK261413]
viability at 28.5 h, 10 µM: 88.8%

CCC(COC)NS(=O)(=O)c1ccc(C(C)C)cc1 (stereo not drawn) [CBK044587]
viability at 28.5 h, 10 µM: 108%
